Source: US20090221588A1, “FUNGICIDAL COMPOSITIONS” (SYNGENTA CROP PROTECTION, INC., priority 2006, published 2009)

Tests used:
Septoria tritici = test: Action against Septoria tritici: growth inhibition in nutrient broth, microtiter plate, photometric; assay type: cell-based; settings: single active ingredient, 24° C., 72 hrs
From the text: (§1) The action to be expected E for a given active ingredient combination obeys the so-called COLBY formula and can be calculated as follows (COLBY, S. R. “Calculating synergistic and antagonistic responses of herbicide combination”. Weeds, Vol. 15, pages 20-22; 1967): ppm=milligrams of active ingredient (=a.i.) per liter of spray mixture X=% action by active ingredient A) using p ppm of active ingredient Y=% action by active ingredient B) using q ppm of active ingredient. According to COLBY, the expected (additive) action of active ingredients A)+B) using p+q ppm of active ingredient is If the action actually observed (O) is greater than the expected action (E), then the action of the combination is super-additive, i.e. there is a synergistic effect. In mathematical terms, synergism corresponds to a positive value for the difference of (O-E). In the case of purely complementary addition of activities (expected activity), said difference (O-E) is zero. A negative value of said difference (O-E) signals a loss of activity compared to the expected activity. In the following examples a specific compound of formula (I) was used. Said compound of formula (I) was a mixture of the racemic syn- and anti-compound of formula (I), in a syn/anti-ratio of 9:1. Conidia of the fungus from cryogenic storage are directly mixed into nutrient broth (PDB potato dextrose broth). After placing a (DMSO) solution of the test compounds into a microtiter plate (96-well format) the nutrient broth containing the fungal spores is added. […] The fungicide interactions in the combinations are calculated according to COLBY method.

[1] = test system: Pseudocercosporella herpotrichoides var. acuformis; test: Action against Pseudocercosporella herpotrichoides var. acuformis (eyespot/cereals): growth inhibition in nutrient broth, microtiter plate, photometric; assay type: cell-based; settings: single active ingredient, 24° C., 72 hrs
From the text: as §1

Row | SMILES | Observed control in % (% Cobs) (Septoria tritici; 0.063 ppm [mg/L] final medium) [%] | Observed control in % (% Cobs) (Septoria tritici; 0.125 ppm [mg/L] final medium) [%] | Observed control in % (% Cobs) ([1]; 0.016 ppm [mg/L] final medium) [%] | Observed control in % (% Cobs) ([1]; 0.031 ppm [mg/L] final medium) [%] | Observed control in % (% Cobs) ([1]; 0.063 ppm [mg/L] final medium) [%]
1 | O=C(NCCc1ncc(C(F)(F)F)cc1Cl)c1ccccc1C(F)(F)F [Cpd B-1.1, fluopyram] | 6 | 0 | 1 | 3 | 14
2 | CC(C)C1C2CCC1c1c(NC(=O)c3cn(C)nc3C(F)F)cccc12 (racemic) [Cpd I, 3-difluoromethyl-1-methyl-1H-pyrazole-4-carboxylic acid (9-isopropyl-1,2,3,4-tetrahydro-1,4-methano-naphthalen-5-yl)-amide] | 26 | 52 | 12 | 40 | 67
